Experimental findings from PubChem BioAssay (NCI) are described below.

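Exposure lasted 48 hours, with cells grown in 96-well plates and compounds tested at five concentrations. GI50 = concentration required for 50% inhibition of growth. Definition used: TGI = concentration required for complete inhibition of growth.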

Test systems include MOLT-4 leukemia; SNB-75 CNS; SR leukemia; NCI-H460 lung; SK-MEL-28 melanoma; HS 578T breast; M14 melanoma; SNB-19 CNS; SF-539 CNS; K-562 leukemia.
Holding throughout (experiment): growth of human tumour cells (NCI), 48 h

Take `COc1ccc(Nc2ccnc(NCCCNc3ccnc4cc(Cl)ccc34)n2)cc1`: the GI50 in the assay with MOLT-4 leukemia is 1.45 µM; in the assay on SNB-75 CNS, 0.903 µM; with SR leukemia, 0.254 µM; in the assay with NCI-H460 lung, 1.27 µM; with SK-MEL-28 melanoma, 0.434 µM; with HS 578T breast it was 1.46 µM. Besides, the figures for the GI50 with M14 melanoma, in the assay with SNB-19 CNS and with SF-539 CNS were 0.196 µM, 2.61 µM and 0.169 µM, respectively. For the same molecule, the TGI in the assay on MOLT-4 leukemia amounted to 7.22 µM; in the assay on SNB-75 CNS it was 2.14 µM; with SR leukemia, 0.912 µM; with NCI-H460 lung, 2.85 µM; in the assay on SK-MEL-28 melanoma it was 1.66 µM; with HS 578T breast it was 3.83 µM. For the same molecule, the TGI with M14 melanoma was determined as 0.461 µM; with SNB-19 CNS, 10.1 µM; in the assay on SF-539 CNS it was 0.352 µM.
For `Clc1ccc(CO/N=C(\Cn2ccnc2)c2ccc(Cl)cc2Cl)c(Cl)c1`, the GI50 in the assay with MOLT-4 leukemia is 2.19 µM; in the assay on SNB-75 CNS it was 1.65 µM; in the assay with SR leukemia it was 1.65 µM; with SK-MEL-28 melanoma, 1.67 µM; in the assay on HS 578T breast it was 2.73 µM; in the assay with M14 melanoma it was 1.85 µM. In the assay with SF-539 CNS, the GI50 was 1.86 µM. The TGI in the assay with MOLT-4 leukemia is 4.94 µM; in the assay on SNB-75 CNS, 3.22 µM; in the assay with SR leukemia, 4.29 µM; with SK-MEL-28 melanoma, 3.07 µM; in the assay with HS 578T breast, above 100 µM; in the assay with M14 melanoma, 3.71 µM. Moreover, the TGI in the assay with SF-539 CNS is 3.34 µM.
Regarding `[N-]=[N+]=CC(=O)OCC(N)C(=O)O` (centres undefined), the GI50 was 0.638 µM in the assay with MOLT-4 leukemia; 2.68 µM in the assay with SNB-75 CNS; 0.638 µM with SR leukemia; 1.27 µM in the assay with NCI-H460 lung; 2.94 µM in the assay with SK-MEL-28 melanoma; above 100 µM in the assay on HS 578T breast. The GI50 with M14 melanoma was 0.809 µM; in the assay on SNB-19 CNS, 2.28 µM; in the assay on SF-539 CNS, 0.64 µM. The TGI is above 100 µM with MOLT-4 leukemia; above 100 µM in the assay on SNB-75 CNS; above 100 µM with SR leukemia; 16.4 µM in the assay with NCI-H460 lung; above 100 µM in the assay on SK-MEL-28 melanoma; above 100 µM in the assay with HS 578T breast. Besides, the TGI with M14 melanoma, in the assay with SNB-19 CNS and in the assay with SF-539 CNS was above 100 µM each time.
As to `CCNc1nc(N2CC(=O)Nc3cc(OC)ccc32)c2ccccc2n1`, the GI50 is 0.000472 µM in the assay with MOLT-4 leukemia; 0.000433 µM in the assay on SNB-75 CNS; 0.000365 µM in the assay with NCI-H460 lung; 0.000351 µM in the assay with K-562 leukemia; 1.7 µM in the assay on SK-MEL-28 melanoma; 0.00164 µM in the assay on HS 578T breast. Also, the GI50 in the assay on M14 melanoma is 0.000363 µM; in the assay with SNB-19 CNS, 0.00067 µM; with SF-539 CNS it was 0.0011 µM. For the same molecule, the TGI with MOLT-4 leukemia is above 100 µM; with SNB-75 CNS, above 100 µM; in the assay with NCI-H460 lung, above 100 µM; in the assay on K-562 leukemia it was above 100 µM; in the assay on SK-MEL-28 melanoma it was above 100 µM; in the assay on HS 578T breast, 47.8 µM. Moreover, the results for the TGI in the assay on M14 melanoma, in the assay with SNB-19 CNS and in the assay with SF-539 CNS were above 100 µM, above 100 µM and 0.00655 µM, respectively.
With `Cc1ccc(S(=O)(=O)n2cc(C(=O)C(=O)Nc3ccncc3)c3ccccc32)cc1`, the GI50 is 1.77 µM in the assay on MOLT-4 leukemia; 1.72 µM in the assay on SNB-75 CNS; 7.05 µM with NCI-H460 lung; 0.522 µM in the assay on K-562 leukemia; 4.17 µM in the assay on SK-MEL-28 melanoma; 0.907 µM in the assay on M14 melanoma. Besides, the values for the GI50 in the assay on SNB-19 CNS and in the assay with SF-539 CNS were 7.37 µM and 1.56 µM, respectively. In addition, the TGI was above 76.5 µM with MOLT-4 leukemia; 16.3 µM in the assay with SNB-75 CNS; 96.8 µM with NCI-H460 lung; above 100 µM with K-562 leukemia; above 100 µM in the assay on SK-MEL-28 melanoma; above 100 µM in the assay on HS 578T breast. In addition, the TGI with M14 melanoma is above 100 µM; in the assay with SNB-19 CNS, above 100 µM; with SF-539 CNS, 6.84 µM.
Turning to `CCCCCCCCCCCC(=O)OCC1OC(n2cc(F)c(=O)[nH]c2=O)C(N)C(O)C1O` (centres undefined), the TGI in the assay on MOLT-4 leukemia, in the assay with SNB-75 CNS, in the assay with SR leukemia, with NCI-H460 lung, in the assay with K-562 leukemia and with SK-MEL-28 melanoma was above 100 µM in each case. Moreover, the TGI with M14 melanoma, in the assay on SNB-19 CNS and in the assay on SF-539 CNS was above 100 µM throughout.
Consider `Cc1ccc2sc3c(NCCCNCCO)nc4ccccc4c3c(=O)c2c1`, for which the GI50 with MOLT-4 leukemia is 1.81 µM; with SNB-75 CNS, 1.2 µM; in the assay on SR leukemia, 1.55 µM; in the assay with NCI-H460 lung, 1.7 µM; in the assay with K-562 leukemia, 1.36 µM; in the assay with SK-MEL-28 melanoma, 1.8 µM. Also, the GI50 with HS 578T breast was 1.63 µM; in the assay with M14 melanoma, 1.61 µM; in the assay with SF-539 CNS, 1.68 µM. The TGI in the assay on MOLT-4 leukemia was 3.55 µM; in the assay on SNB-75 CNS, 2.5 µM; in the assay with SR leukemia it was 4.07 µM; in the assay on NCI-H460 lung it was 3.24 µM; with K-562 leukemia, 3.72 µM; in the assay on SK-MEL-28 melanoma, 3.36 µM. For the same molecule, the TGI in the assay with HS 578T breast was 3.7 µM; in the assay with M14 melanoma, 3.06 µM; with SF-539 CNS, 3.08 µM.
Turning to `CCOC(=O)/C=C1\Nc2ccccc2-n2nnnc21`, the TGI in the assay on MOLT-4 leukemia, with SNB-75 CNS, in the assay with SR leukemia, in the assay with NCI-H460 lung, in the assay on K-562 leukemia and in the assay on SK-MEL-28 melanoma was above 100 µM each time. For the same molecule, the TGI with M14 melanoma, in the assay on SNB-19 CNS and in the assay on SF-539 CNS was above 100 µM throughout.
Take `C[C@]12CCC(=O)C=C1CC[C@@H]1[C@@H]2CC[C@]2(C)C(=O)/C(=C/c3cccc(OCCN4CCOCC4)c3)C[C@@H]12`: the GI50 with SNB-75 CNS was 12 µM; in the assay on SR leukemia, 4.72 µM; in the assay with NCI-H460 lung, 7.11 µM; in the assay with K-562 leukemia it was 3.51 µM; in the assay on SK-MEL-28 melanoma, 11.9 µM; with HS 578T breast, 16.6 µM. The GI50 with M14 melanoma is 8.9 µM; in the assay on SNB-19 CNS it was 15.8 µM; with SF-539 CNS, 10.5 µM. The TGI was found to be 31.9 µM with SNB-75 CNS; 22 µM with SR leukemia; 30.1 µM with NCI-H460 lung; 15.5 µM in the assay with K-562 leukemia; 29.8 µM in the assay on SK-MEL-28 melanoma; 66.7 µM with HS 578T breast. For the same molecule, the TGI in the assay on M14 melanoma is 21.5 µM; with SNB-19 CNS, above 100 µM; in the assay with SF-539 CNS, 23.7 µM.
